# Results from ChEMBL document CHEMBL5512670 (J Med Chem, 2024).
# Columns and labels:
# [1] = Cmax in C57BL/6 mouse at 10 mg/kg,po administrated upto 24 hrs by LC-MS/MS analysis; type: ADME, organism-based; conditions: in vivo
# [2] = AUC (0 to 24 hrs) in C57BL/6 mouse at 50 mg/kg,po administrated upto 24 hrs by LC-MS/MS analysis; type: ADME, organism-based; conditions: in vivo
# [3] = Volume of distribution at steady state in Wistar rat at 1 mg/kg,po administration; type: ADME, organism-based; conditions: in vivo
# [4] = Dissociation constant, pKa of the compound; type: physicochemical
# [5] = Clearance in Wistar rat blood at 1 mg/kg,po administration; type: ADME, organism-based
# [6] = Drug metabolism in human liver microsomes assessed as metabolite formation; type: ADME, Microsome
# [7] = Oral bioavailability in Wistar rat plasma at 50 mg/kg administration; type: ADME, organism-based
# [8] = Cmax in C57BL/6 mouse at 50 mg/kg,po administrated upto 24 hrs by LC-MS/MS analysis; type: ADME, organism-based; conditions: in vivo
# [9] = AUC (0 to 24 hrs) in C57BL/6 mouse infected with Clostridioides difficile CD1264 at 10 mg/kg,po administrated upto 24 hrs by LC-MS/MS analysis; type: ADME, organism-based; conditions: in vivo
# [10] = Lipophilicity, logD of the compound at pH 7.4; type: physicochemical; conditions: buffer
# [11] = Drug metabolism in human Hepatocyte assessed as metabolite formation; type: ADME, cell-based; conditions: hepatocytes
# [12] = Clearance in Wistar rat plasma at 1 mg/kg,po administration; type: ADME, organism-based
# [13] = AUC (0 to 24 hrs) in C57BL/6 mouse at 10 mg/kg,po administrated upto 24 hrs by LC-MS/MS analysis; type: ADME, organism-based; conditions: in vivo
# [14] = Drug concentration in Wistar rat plasma at 50 mg/kg,po administration; type: ADME, organism-based; conditions: in vivo
# [15] = Cmax in C57BL/6 mouse infected with Clostridioides difficile CD1264 at 50 mg/kg,po administrated upto 24 hrs by LC-MS/MS analysis; type: ADME, organism-based; conditions: in vivo
# [16] = Half life in Wistar rat at 1 mg/kg,po administration; type: ADME, organism-based; conditions: in vivo
# [17] = AUC (0 to infinity) in Wistar rat at 1 mg/kg,po administration; type: ADME, organism-based; conditions: in vivo
# [18] = AUC (0 to 24 hrs) in C57BL/6 mouse infected with Clostridioides difficile CD1264 at 50 mg/kg,po administrated upto 24 hrs by LC-MS/MS analysis; type: ADME, organism-based; conditions: in vivo
# [19] = Cmax in C57BL/6 mouse infected with Clostridioides difficile CD1264 at 10 mg/kg,po administrated upto 24 hrs by LC-MS/MS analysis; type: ADME, organism-based; conditions: in vivo
structure (smiles),measurement,setting,value
O=C(O)c1cn(C2CC2)c2cc(N3CCC(O)(COc4ccc(N5C[C@H](CO)OC5=O)cc4F)CC3)c(F)cc2c1=O [CADAZOLID],Cmax,[1],3 ng/mL
same,AUC(0-t) at 24 h,[2],0.078 µg·h/mL
same,Vdss,[3],2 L/kg
same,pKa,[4],6
same,CL/F,[5],5.76 L/h/kg
same,Drug metabolism,[6],Metabolite_Notdetected
same,bioavailability,[7],0%
same,Cmax,[8],6 ng/mL
same,AUC(0-t) at 24 h,[9],0.027 µg·h/mL
same,logD,[10],1.2
same,Drug metabolism,[11],Metabolite_Notdetected
same,CL/F,[12],3.9 L/h/kg
same,AUC(0-t) at 24 h,[13],0.009 µg·h/mL
same,Cp,[14],1 ng/mL
same,Cmax,[15],10 ng/mL
same,half-life,[16],36 min
same,AUC(0-inf),[17],0.255 µg·h/mL
same,AUC(0-t) at 24 h,[18],0.147 µg·h/mL
same,Cmax,[19],12 ng/mL
